{
  "source": "patent US20200222474A1",
  "about": "“COMPOSITIONS AND METHODS FOR INCREASING PHYTOCHEMICAL BIOAVAILABLITY AND BIOACTIVITY” (North Carolina State University, priority 2017, published 2020)",
  "tested_on": "L. acidophilus NCFM",
  "assay": "RNA-seq transcriptional analysis of L. acidophilus NCFM growing on plant glycosides",
  "assay_type": "cell-based, Lactobacillus acidophilus",
  "key": {"[1]": {"conditions": "LBA1481 D-ribose-binding protein precursor, COG G"}, "[2]": {"conditions": "LBA1482 Ribose ABC transporter, COG G"}, "[3]": {"conditions": "LBA1483 Ribose ABC transporter ATP binding protein, COG G"}, "[4]": {"conditions": "LBA1484 D-ribose pyranase, COG G"}, "[5]": {"conditions": "LBA1494 Lincomycin-resistance protein, COG GEPR"}, "[6]": {"conditions": "LBA1607 Phosphatidylserine decarboxylase precursor, COG I"}, "[7]": {"conditions": "LBA1632 NAD-dependent aldehyde dehydrogenase, COG C"}, "[8]": {"conditions": "LBA1653 Nicotinamide mononucleotide, COG H"}, "[9]": {"conditions": "LBA1684 Putative PTS system IIA component, COG G"}, "[10]": {"conditions": "LBA1689 Maltose-6′-phosphate Oucosidase, COG G"}, "[11]": {"conditions": "LBA1700 Transcriptional regulator-type, COG K"}, "[12]": {"conditions": "LBA1701 Melibiose operon regulatory protein, COG K"}, "[13]": {"conditions": "LBA1705 PTS system IIBC component, COG G"}, "[14]": {"conditions": "LBA1708 Transcriptional antiterminator, COG K"}, "[15]": {"conditions": "LBA1710 Thermostable pullulanase, COG G"}, "[16]": {"conditions": "LBA1812 Alpha-glucosidase II, COG G"}, "[17]": {"conditions": "LBA1870 Maltose phosphorylase, COG G"}, "[18]": {"conditions": "LBA1872 Oligo-1,6-glucosidase, COG G"}, "[19]": {"conditions": "LBA1955 Transcription regulator family protein, COG K"}, "[20]": {"conditions": "gene LBA0046 (Hypothetical protein)"}, "[21]": {"conditions": "gene LBA0149 (Putative nucleotide-binding protein)"}, "[22]": {"conditions": "gene LBA0263 (Hypothetical protein)"}},
  "data": [
    {"smiles": "N#C[C@H](O[C@@H]1O[C@H](CO[C@@H]2O[C@H](CO)[C@@H](O)[C@H](O)[C@H]2O)[C@@H](O)[C@H](O)[C@H]1O)c1ccccc1", "note": "[Amygdalin]", "values": [
      {"measurement": "Transcripts per million (rpm)", "setting": "LBA1468 Beta-galactosidase small subunit, COG G", "value": 61.3, "unit": "rpm"},
      {"measurement": "Log2 differential normalized TPM ratio compared to glucose", "setting": "[1]", "value": 3},
      {"measurement": "Log2 differential normalized TPM ratio compared to lactose", "setting": "[1]", "value": 2.3},
      {"measurement": "Transcripts per million (rpm)", "setting": "[1]", "value": 33, "unit": "rpm"},
      {"measurement": "Log2 differential normalized TPM ratio compared to glucose", "setting": "[2]", "value": 3.4},
      {"measurement": "Log2 differential normalized TPM ratio compared to lactose", "setting": "[2]", "value": 2.3},
      {"measurement": "Transcripts per million (rpm)", "setting": "[2]", "value": 32.6, "unit": "rpm"},
      {"measurement": "Log2 differential normalized TPM ratio compared to glucose", "setting": "[3]", "value": 3.6},
      {"measurement": "Log2 differential normalized TPM ratio compared to lactose", "setting": "[3]", "value": 2.6},
      {"measurement": "Transcripts per million (rpm)", "setting": "[3]", "value": 30.8, "unit": "rpm"},
      {"measurement": "Log2 differential normalized TPM ratio compared to glucose", "setting": "[4]", "value": 3.6},
      {"measurement": "Log2 differential normalized TPM ratio compared to lactose", "setting": "[4]", "value": 2.9},
      {"measurement": "Transcripts per million (rpm)", "setting": "[4]", "value": 37.3, "unit": "rpm"},
      {"measurement": "Log2 differential normalized TPM ratio compared to glucose", "setting": "LBA1485 Ribokinase, COG G", "value": 3.5},
      {"measurement": "Log2 differential normalized TPM ratio compared to lactose", "setting": "LBA1485 Ribokinase, COG G", "value": 2.8},
      {"measurement": "Transcripts per million (rpm)", "setting": "LBA1485 Ribokinase, COG G", "value": 29.8, "unit": "rpm"},
      {"measurement": "Log2 differential normalized TPM ratio compared to glucose", "setting": "[5]", "value": "−0.7"},
      {"measurement": "Log2 differential normalized TPM ratio compared to lactose", "setting": "[5]", "value": "−0.8"},
      {"measurement": "Transcripts per million (rpm)", "setting": "[5]", "value": 2.6, "unit": "rpm"},
      {"measurement": "Log2 differential normalized TPM ratio compared to glucose", "setting": "[6]", "value": 2.6},
      {"measurement": "Log2 differential normalized TPM ratio compared to lactose", "setting": "[6]", "value": 1.6},
      {"measurement": "Transcripts per million (rpm)", "setting": "[6]", "value": 102.4, "unit": "rpm"},
      {"measurement": "Log2 differential normalized TPM ratio compared to glucose", "setting": "[7]", "value": 4.4},
      {"measurement": "Log2 differential normalized TPM ratio compared to lactose", "setting": "[7]", "value": 2.6},
      {"measurement": "Transcripts per million (rpm)", "setting": "[7]", "value": 1223.3, "unit": "rpm"},
      {"measurement": "Log2 differential normalized TPM ratio compared to glucose", "setting": "[8]", "value": "−0.1"},
      {"measurement": "Log2 differential normalized TPM ratio compared to lactose", "setting": "[8]", "value": "−0.7"},
      {"measurement": "Transcripts per million (rpm)", "setting": "[8]", "value": 180.2, "unit": "rpm"},
      {"measurement": "Log2 differential normalized TPM ratio compared to glucose", "setting": "[9]", "value": 6.6},
      {"measurement": "Log2 differential normalized TPM ratio compared to lactose", "setting": "[9]", "value": 4.7},
      {"measurement": "Transcripts per million (rpm)", "setting": "[9]", "value": 976.1, "unit": "rpm"},
      {"measurement": "Log2 differential normalized TPM ratio compared to glucose", "setting": "[10]", "value": 5.3},
      {"measurement": "Log2 differential normalized TPM ratio compared to lactose", "setting": "[10]", "value": 3.9},
      {"measurement": "Transcripts per million (rpm)", "setting": "[10]", "value": 113.8, "unit": "rpm"},
      {"measurement": "Log2 differential normalized TPM ratio compared to glucose", "setting": "[11]", "value": 2.5},
      {"measurement": "Log2 differential normalized TPM ratio compared to lactose", "setting": "[11]", "value": 2.1},
      {"measurement": "Transcripts per million (rpm)", "setting": "[11]", "value": 96.2, "unit": "rpm"},
      {"measurement": "Log2 differential normalized TPM ratio compared to glucose", "setting": "[12]", "value": 5.3},
      {"measurement": "Log2 differential normalized TPM ratio compared to lactose", "setting": "[12]", "value": 4.6},
      {"measurement": "Transcripts per million (rpm)", "setting": "[12]", "value": 1323.5, "unit": "rpm"},
      {"measurement": "Log2 differential normalized TPM ratio compared to glucose", "setting": "[13]", "value": 2.7},
      {"measurement": "Log2 differential normalized TPM ratio compared to lactose", "setting": "[13]", "value": 1.9},
      {"measurement": "Transcripts per million (rpm)", "setting": "[13]", "value": 18.5, "unit": "rpm"},
      {"measurement": "Log2 differential normalized TPM ratio compared to glucose", "setting": "[14]", "value": 2.8},
      {"measurement": "Log2 differential normalized TPM ratio compared to lactose", "setting": "[14]", "value": 1.4},
      {"measurement": "Transcripts per million (rpm)", "setting": "[14]", "value": 3.3, "unit": "rpm"},
      {"measurement": "Log2 differential normalized TPM ratio compared to glucose", "setting": "[15]", "value": 2.1},
      {"measurement": "Log2 differential normalized TPM ratio compared to lactose", "setting": "[15]", "value": 1.7},
      {"measurement": "Transcripts per million (rpm)", "setting": "[15]", "value": 26.7, "unit": "rpm"},
      {"measurement": "Log2 differential normalized TPM ratio compared to glucose", "setting": "LBA1723 Transposase, COG L", "value": 2},
      {"measurement": "Log2 differential normalized TPM ratio compared to lactose", "setting": "LBA1723 Transposase, COG L", "value": 1.8},
      {"measurement": "Transcripts per million (rpm)", "setting": "LBA1723 Transposase, COG L", "value": 176.9, "unit": "rpm"},
      {"measurement": "Log2 differential normalized TPM ratio compared to glucose", "setting": "[16]", "value": 5.3},
      {"measurement": "Log2 differential normalized TPM ratio compared to lactose", "setting": "[16]", "value": 3.2},
      {"measurement": "Transcripts per million (rpm)", "setting": "[16]", "value": 520.3, "unit": "rpm"},
      {"measurement": "Log2 differential normalized TPM ratio compared to glucose", "setting": "[17]", "value": 2.7},
      {"measurement": "Log2 differential normalized TPM ratio compared to lactose", "setting": "[17]", "value": 3.9},
      {"measurement": "Transcripts per million (rpm)", "setting": "[17]", "value": 539.7, "unit": "rpm"},
      {"measurement": "Log2 differential normalized TPM ratio compared to glucose", "setting": "LBA1871 Neopullulanase, COG G", "value": 4.3},
      {"measurement": "Log2 differential normalized TPM ratio compared to lactose", "setting": "LBA1871 Neopullulanase, COG G", "value": 3.6},
      {"measurement": "Transcripts per million (rpm)", "setting": "LBA1871 Neopullulanase, COG G", "value": 43.6, "unit": "rpm"},
      {"measurement": "Log2 differential normalized TPM ratio compared to glucose", "setting": "[18]", "value": 3.6},
      {"measurement": "Log2 differential normalized TPM ratio compared to lactose", "setting": "[18]", "value": 3.2},
      {"measurement": "Transcripts per million (rpm)", "setting": "[18]", "value": 30, "unit": "rpm"},
      {"measurement": "Log2 differential normalized TPM ratio compared to glucose", "setting": "LBA1873 Acetate kinase, COG C", "value": 4.6},
      {"measurement": "Log2 differential normalized TPM ratio compared to lactose", "setting": "LBA1873 Acetate kinase, COG C", "value": 3.2},
      {"measurement": "Transcripts per million (rpm)", "setting": "LBA1873 Acetate kinase, COG C", "value": 67.3, "unit": "rpm"},
      {"measurement": "Log2 differential normalized TPM ratio compared to glucose", "setting": "LBA1878 Glycerol kinase, COG C", "value": 1.4},
      {"measurement": "Log2 differential normalized TPM ratio compared to lactose", "setting": "LBA1878 Glycerol kinase, COG C", "value": 1.3},
      {"measurement": "Transcripts per million (rpm)", "setting": "LBA1878 Glycerol kinase, COG C", "value": 17.8, "unit": "rpm"},
      {"measurement": "Log2 differential normalized TPM ratio compared to glucose", "setting": "[19]", "value": 3.8},
      {"measurement": "Log2 differential normalized TPM ratio compared to lactose", "setting": "[19]", "value": 4.2},
      {"measurement": "Transcripts per million (rpm)", "setting": "[19]", "value": 5835.9, "unit": "rpm"},
      {"measurement": "number of up-regulated genes", "setting": "RNA-seq, compared to glucose", "value": 116, "unit": "genes"},
      {"measurement": "number of uniquely induced genes", "setting": "RNA-seq, up-regulated genes not shared with the other PGs", "value": 58},
      {"measurement": "Log2 differential normalized TPM ratio compared to glucose", "setting": "[20]", "value": "−3"},
      {"measurement": "Log2 differential normalized TPM ratio compared to lactose", "setting": "[20]", "value": "−3.8"},
      {"measurement": "Transcripts per million (rpm)", "setting": "[20]", "value": 29.9, "unit": "rpm"},
      {"measurement": "Log2 differential normalized TPM ratio compared to glucose", "setting": "[21]", "value": 2},
      {"measurement": "Log2 differential normalized TPM ratio compared to lactose", "setting": "[21]", "value": 1.2},
      {"measurement": "Transcripts per million (rpm)", "setting": "[21]", "value": 1625.4, "unit": "rpm"},
      {"measurement": "Log2 differential normalized TPM ratio compared to glucose", "setting": "[22]", "value": 2.1},
      {"measurement": "Log2 differential normalized TPM ratio compared to lactose", "setting": "[22]", "value": 1.4},
      {"measurement": "Transcripts per million (rpm)", "setting": "[22]", "value": 55.9, "unit": "rpm"}
    ]}
  ]
}
